Measurements from PubChem BioAssay (NCI).
Values joined by “and” are separate entries in the source; they are usually repeats but may differ in a detail not shown here. Equal values may be shown once.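 Five compound concentrations were applied to cells in 96-well plates for 48 hours; endpoints were derived by simple linear interpolation of the resulting dose-response curve. GI50: concentration for 50% inhibition of growth. The concentration for full growth arrest is given as TGI.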

Tests used:
Assay in all cases: inhibition of tumour cell growth, NCI panel, 48 h
[1] = test system: OVCAR-3 ovarian
[2] = test system: SK-MEL-28 melanoma
[3] = test system: MOLT-4 leukemia
[4] = test system: MALME-3M melanoma
[5] = test system: A498 renal
[6] = test system: HCT-116 colon
[7] = test system: HOP-92 NSCLC
[8] = test system: K-562 leukemia
[9] = test system: UACC-257 melanoma
[10] = test system: DU-145 prostate

O=C(O)CCC(NC(=S)S)C(=O)O.[Na+].[Zn+2] (configuration not stated)
GI50 [1]: > 50 µM
TGI [1]: > 50 µM
GI50 [2]: > 50 µM
TGI [2]: > 50 µM
GI50 [3]: > 50 µM
TGI [3]: > 50 µM
GI50 [4]: > 50 µM
TGI [4]: > 50 µM
GI50 [5]: > 50 µM
TGI [5]: > 50 µM
GI50 [6]: > 50 µM
TGI [6]: > 50 µM
GI50 [7]: > 50 µM
TGI [7]: > 50 µM
GI50 [8]: > 50 µM
TGI [8]: > 50 µM
GI50 [9]: > 50 µM
TGI [9]: > 50 µM
GI50 [10]: > 50 µM
TGI [10]: > 50 µM

Cc1ccccc1Nc1nc2c(s1)C(=O)c1ccccc1C2=O
TGI [1]: 5.31 µM
TGI [2]: 27.7 µM
TGI [3]: > 24.3 µM
TGI [4]: 28.2 µM
TGI [5]: 39.5 µM
TGI [6]: 6.66 µM
TGI [7]: 25.1 µM
TGI [8]: > 36.2 µM
TGI [9]: 12.4 µM
TGI [10]: 20 µM

COc1ccccc1-c1cc(=O)c2ccc(C)nc2[nH]1
GI50 [1]: > 100 µM
TGI [1]: > 100 µM
TGI [2]: > 100 µM
TGI [3]: > 100 µM
TGI [4]: > 100 µM
TGI [5]: > 100 µM
GI50 [6]: 37.6 µM
TGI [6]: > 100 µM
TGI [7]: > 100 µM
TGI [8]: > 100 µM
TGI [9]: > 100 µM
TGI [10]: > 100 µM

OB1OCc2cc(/C=C/c3cccc(C(F)(F)F)c3)ccc21
GI50 [1]: 1.37 µM
TGI [1]: 17.8 µM
GI50 [2]: 18.8 µM
TGI [2]: > 100 µM
GI50 [3]: 0.454 µM
TGI [3]: 12.9 µM
GI50 [4]: 7.65 µM
TGI [4]: 54.3 µM
GI50 [5]: 1.13 µM
TGI [5]: 9.22 µM
GI50 [6]: 0.89 µM
TGI [6]: 11.8 µM
GI50 [7]: 0.712 µM
TGI [7]: 10.7 µM
GI50 [8]: 0.93 µM
TGI [8]: 24.2 µM
GI50 [9]: 4.31 µM
TGI [9]: > 100 µM
GI50 [10]: 0.554 µM
TGI [10]: 15.3 µM

O=C/C(=C(/Cl)c1ccc(O)cc1)c1ccccc1
TGI [1]: 37.5 µM
TGI [2]: 41.9 µM
TGI [3]: > 69.4 µM
TGI [4]: 70.4 µM
TGI [5]: > 100 µM
TGI [6]: 37.2 µM
TGI [7]: 50.7 µM
TGI [8]: > 100 µM
TGI [9]: > 56.6 µM
TGI [10]: > 100 µM

Cc1ncc(C(=O)Nc2ccc(CN3CCN(C)CC3)c(C(F)(F)F)c2)cc1C#Cc1cnc(NC2CC2)c2ncccc12
GI50 [1]: 0.693 µM
TGI [1]: 1.28 µM
GI50 [2]: 0.641 µM
TGI [2]: 1.18 µM
GI50 [3]: 0.519 µM
TGI [3]: 1.17 µM
GI50 [4]: 0.57 µM
TGI [4]: 1.15 µM
GI50 [5]: 1.78 µM
TGI [5]: 5.56 µM
GI50 [6]: 0.578 µM
TGI [6]: 1.07 µM
GI50 [7]: 0.682 µM
TGI [7]: 2.08 µM
GI50 [8]: 0.0211 µM
TGI [8]: 0.476 µM
GI50 [9]: 0.719 µM
TGI [9]: 1.59 µM
GI50 [10]: 0.65 µM
TGI [10]: 1.22 µM

CCSc1nc(N)c2cn[nH]c2n1
GI50 [1]: 22.1 µM
TGI [1]: 72.1 µM
GI50 [2]: 33.2 µM
TGI [2]: > 100 µM
GI50 [3]: 39.4 µM
TGI [3]: > 100 µM
GI50 [4]: 31.2 µM
TGI [4]: 67 µM
GI50 [5]: 20.7 µM
TGI [5]: 50.2 µM
GI50 [6]: 30.5 µM
TGI [6]: > 100 µM
GI50 [7]: 1.37 µM
TGI [7]: 93.3 µM
GI50 [8]: 37.3 µM
TGI [8]: > 100 µM
GI50 [9]: 71.1 µM
TGI [9]: > 100 µM
GI50 [10]: 46.2 µM
TGI [10]: > 100 µM

CCN(CC)CCNC(=O)c1c(C)[nH]c(/C=C2\C(=O)Nc3ccc(F)cc32)c1C
GI50 [1]: > 10 µM and 3.41 µM and 3.33 µM
TGI [1]: > 10 µM and 6.34 µM and 7.54 µM
GI50 [2]: 2.47 µM and 3 µM and 1.57 µM
TGI [2]: > 10 µM and 5.89 µM and 3.31 µM
GI50 [3]: 1.1 µM and 2.73 µM and 1.7 µM
TGI [3]: > 10 µM and 20 µM and 9.05 µM
GI50 [4]: 1.87 µM and 2.18 µM and 1.16 µM
TGI [4]: 6.55 µM and 5.1 µM and 2.91 µM
GI50 [5]: > 10 µM and 2.21 µM and 2.84 µM
TGI [5]: > 10 µM and 4.83 µM and 15.4 µM
GI50 [6]: 1.32 µM and 1.38 µM and 1.16 µM
TGI [6]: 5.25 µM and 3.85 µM and 3.09 µM
GI50 [7]: 0.831 µM and 0.439 µM
TGI [7]: 9.01 µM and 3.05 µM
GI50 [8]: 2.29 µM and 3.22 µM and 1.53 µM
TGI [8]: > 10 µM and 9.75 µM and 5.57 µM
GI50 [9]: > 10 µM and 2.49 µM and 3.24 µM
TGI [9]: > 10 µM and 5.21 µM and 8.69 µM
GI50 [10]: 3.73 µM and 2.83 µM and 2.19 µM
TGI [10]: > 10 µM and 20 µM and 15.5 µM

CCCCCCCCCCCC[n+]1ccccc1 (tested in a mixture with another compound)
GI50 [1]: 0.722 µM
TGI [1]: 2.44 µM
GI50 [2]: 1.35 µM
TGI [2]: 3.53 µM
GI50 [3]: 1.34 µM
TGI [3]: 4.78 µM
GI50 [4]: 0.633 µM
TGI [4]: 2.77 µM
GI50 [5]: 1.84 µM
TGI [5]: 7.25 µM
GI50 [6]: 0.548 µM
TGI [6]: 2.62 µM
GI50 [7]: 0.29 µM
TGI [7]: 2.43 µM
GI50 [8]: 0.392 µM
TGI [8]: 11 µM
GI50 [9]: 0.772 µM
TGI [9]: 2.88 µM
GI50 [10]: 1.5 µM
TGI [10]: 9.88 µM

C=C1CC2(OC1=O)C(=O)N(CCCN1C(=O)C3(CC(=C)C(=O)O3)c3ccccc31)c1ccccc12 (configuration not stated)
GI50 [1]: 0.571 µM
TGI [1]: 1.83 µM
GI50 [2]: 1.92 µM
TGI [2]: 3.61 µM
GI50 [3]: 0.419 µM
TGI [3]: 1.93 µM
GI50 [4]: 1.7 µM
TGI [4]: 3.21 µM
GI50 [5]: 3.12 µM
TGI [5]: 17 µM
GI50 [6]: 1.84 µM
TGI [6]: 3.75 µM
GI50 [7]: 1.33 µM
TGI [7]: 2.76 µM
GI50 [8]: 0.385 µM
TGI [8]: 2.07 µM
GI50 [9]: 1.66 µM
TGI [9]: 3.95 µM
GI50 [10]: 1.73 µM
TGI [10]: 3.52 µM

O=S(=O)(CCOCc1ccc(-c2ccc3ncnc(Nc4ccc(OCc5cccc(F)c5)c(Cl)c4)c3c2)o1)c1ccccc1
GI50 [1]: > 25 µM
TGI [1]: > 25 µM
GI50 [2]: > 25 µM
TGI [2]: > 25 µM
GI50 [3]: > 25 µM
TGI [3]: > 25 µM
GI50 [4]: > 25 µM
TGI [4]: > 25 µM
GI50 [5]: > 7 µM
TGI [5]: > 25 µM
GI50 [6]: > 25 µM
TGI [6]: > 25 µM
GI50 [7]: > 25 µM
TGI [7]: > 25 µM
GI50 [8]: > 25 µM
TGI [8]: > 25 µM
GI50 [9]: > 25 µM
TGI [9]: > 25 µM
GI50 [10]: > 25 µM
TGI [10]: > 25 µM

CC1(C)N=C(N)N=C(N)N1c1ccc(OCC(=O)Nc2ccccc2)c(Cl)c1
GI50 [1]: 8.51 µM
TGI [1]: > 100 µM
GI50 [2]: > 58.8 µM
TGI [2]: > 100 µM
GI50 [3]: 1.19 µM
TGI [3]: > 59.6 µM
GI50 [4]: > 71.4 µM
TGI [4]: > 100 µM
GI50 [5]: > 58.1 µM
TGI [5]: > 100 µM
GI50 [6]: 0.502 µM
TGI [6]: > 100 µM
GI50 [7]: 68.9 µM
TGI [7]: > 100 µM
GI50 [8]: 0.446 µM
TGI [8]: > 100 µM
GI50 [9]: > 25.4 µM
TGI [9]: > 100 µM
GI50 [10]: 1.15 µM
TGI [10]: > 100 µM
